Measured values as given in patent US7875625B2, “Cyclohepta[b]pyridine-3-carbonylguanidine derivative and pharmaceutical product containing same” (Toa Eiyo Ltd., priority 2005, dated 2011).

How the values were obtained:
[1] = Comparative test for transferability to the brain in rat; type: in vivo; details: male SD rats, 50 mg/kg via tail vein
Procedure: To male SD rats (6 weeks old), the Control Compound or the Inventive Compound 2 was administered through the tail vein in an amount of 50 mg/kg. After administration, whole blood samples were collected over time from the abdominal aorta under etherization, and the brain tissues were extracted immediately. The brain tissues were lightly washed off to remove the blood attached around with physiological saline, and subsequently the tissues were frozen in liquid nitrogen and preserved at −30° C. until analyzed. The blood was centrifuged at 4° C. at a rotation speed of 15000 for 15 minutes to separate the supernatant plasma, and was preserved at −30° C. until analyzed. The brain tissues were thawed by standing at ambient temperature, and then the wet weight was measured. Distilled water was added in an amount five times of the wet weight, and a suspension was prepared using a Polytron homogenizer. The measurement of the test compound concentration in the plasma and the brain tissues was performed by LC/MS/MS. The transferability of the drug to the brain was calculated by dividing the drug concentration in the brain tissues by the plasma concentration obtained at the same time.

Na^+/H^+ exchanger (NHE) = target: T1, Na^+/H^+ exchanger (NHE) (Rattus norvegicus, UniProt P26431); test: NHE inhibitory effect test (swelling of rat platelets induced by sodium propionate); type: cell-based; details: rat platelet-rich plasma, sodium propionate buffer pH 6.7; 300 μM Amiloride taken as 100% inhibition; Probit method
T1 construct: from tissue; host or cells: platelet-rich plasma from Wistar rat blood
T1 sequence (P26431 whole entry): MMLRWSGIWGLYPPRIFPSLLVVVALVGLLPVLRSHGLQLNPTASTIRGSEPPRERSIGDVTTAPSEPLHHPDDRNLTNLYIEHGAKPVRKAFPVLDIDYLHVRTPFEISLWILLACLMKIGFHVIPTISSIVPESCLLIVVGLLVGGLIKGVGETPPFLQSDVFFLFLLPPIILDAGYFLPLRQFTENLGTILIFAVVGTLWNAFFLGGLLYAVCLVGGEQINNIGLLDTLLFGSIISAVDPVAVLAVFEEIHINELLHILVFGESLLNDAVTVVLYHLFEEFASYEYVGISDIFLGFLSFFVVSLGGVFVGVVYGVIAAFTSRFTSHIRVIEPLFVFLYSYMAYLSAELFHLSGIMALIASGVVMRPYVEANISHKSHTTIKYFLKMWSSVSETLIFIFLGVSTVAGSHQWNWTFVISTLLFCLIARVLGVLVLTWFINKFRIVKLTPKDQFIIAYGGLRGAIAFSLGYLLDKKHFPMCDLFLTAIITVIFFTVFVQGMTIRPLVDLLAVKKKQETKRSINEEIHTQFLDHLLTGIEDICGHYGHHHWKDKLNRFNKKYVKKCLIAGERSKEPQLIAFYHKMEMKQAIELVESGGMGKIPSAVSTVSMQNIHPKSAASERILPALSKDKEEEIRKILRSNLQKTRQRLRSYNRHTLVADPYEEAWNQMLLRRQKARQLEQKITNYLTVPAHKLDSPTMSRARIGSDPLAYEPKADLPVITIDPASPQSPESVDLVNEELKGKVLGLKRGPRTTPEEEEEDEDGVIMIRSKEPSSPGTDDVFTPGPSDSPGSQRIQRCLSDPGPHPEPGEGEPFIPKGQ
Procedure: The NHE inhibitory activity was measured according to the method by Scholz et al. [British Journal of Pharmacology, Vol. 109, p. 562-568 (1993)], taking the swelling of rat platelets induced by sodium propionate as an index.
Under etherization, blood was collected (8 mL) from the abdominal aorta of a Wistar rat, and 1 mL of a citrate dextrose solution as an anticoagulant was added. The blood sample was immediately centrifuged at 90×g for 10 minutes, and then the collected supernatant was taken as platelet-rich plasma. Subsequently, to 250 μL of a 140 mM sodium propionate buffer solution containing the test compound dissolved in dimethylsulfoxide (pH 6.7, final dimethylsulfoxide concentration 1%), the platelet-rich plasma prepared in the above (number of platelet; 10×10^6/50 μL) was added, and the decrease in the absorbance associated with the swelling of platelets was measured over time with a Hematracer (NKK Corp.).
The rate of decrease in the absorbance at 20 seconds after the addition of the platelet-rich plasma was taken as the NHE activity, and the inhibitory activity of the respective compounds was expressed as a relative activity, while the action obtained upon addition of 300 μM of Amiloride was taken as 100% inhibition.
In addition, the test results were obtained by calculating the concentration at which the inhibitory activity of the test compound becomes 50% (IC50 value), by a Probit method.

[2] = Metabolic stability test in rat (generation of control compound in plasma); type: in vivo; details: male SD rats; for Plasma concentration of the control compound, after 5 min / Plasma concentration of the control compound, after 15 min / Plasma concentration of the control compound, after 30 min / Plasma concentration of the control compound, after 60 min / Plasma concentration of the control compound, after 120 min: equivalent of 1 mg/kg control compound via tail vein, LC/MS/MS; for Decomposition into the Control Compound in vivo (in words): tail vein, plasma 5-120 min
Source text: The compound represented by Formula (1) of the present invention has a structure in which the hydroxyl group on the 9-position of a 9-hydroxymethyl-cyclohepta[b]pyridine-3-carbonylguanidine derivative is converted to a specific substituent. However, if the compound is metabolized in vivo to remove the specific substituent from the compound, there may be generated the original 9-hydroxymethyl-cyclohepta[b]pyridine-3-carbonylguanidine derivative, which has toxic effects on the central nervous system. Thus, the inventive compounds as synthesized in Examples were administered in vivo to study whether the control compound, which was the corresponding 9-hydroxymethyl product, was generated.
Male SD rats (7 weeks old) were administered at 1 mg/kg (an amount calculated excluding salts) of the control compound, an equivalent amount of the Inventive Compound 2, 4, 6, 7 or 12, or Reference Compound 20, through the tail vein. After administration, about 0.2 mL of blood samples were collected after 5, 15, 30, 60 and 120 minutes, and the blood samples were centrifuged at 4° C. at a speed of rotation of 15000 for 15 minutes, thus to separate the supernatant plasma. The concentration of the control compound in the plasma was measured by LC/MS/MS. The measurement results were shown as +++ when the detected plasma concentration of the control compound is 200 ng/mL or greater; ++ for more than 100 ng/mL and less than 200 ng/mL; + for more than 20 ng/mL and less than 100 ng/mL; and − for less than 20 ng/mL or no detection.

male mice = test: Toxicity test with 2-days repeated intraperitoneal administration in mouse; type: in vivo; details: equivalent of 300 mg/kg control compound intraperitoneally once a day for 2 days
Procedure: For three male mice in each group, 300 mg/kg of the Control Compound (an amount calculated excluding salts), or an equivalent amount of the Inventive Compound 2, 4, 6, 7 or 12 were intraperitoneally administered once a day for 2 days, and a histopathological tests were performed. The Control Compound, and the Inventive Compounds 2, 4 and 6 were suspended in a 0.5% tragacanth gum solution, and the Inventive Compound 7 was suspended in a 10 DMSO-containing 0.5% tragacanth gum solution, while the Inventive Compound 12 was suspended in olive oil. For the histopathological test, in order to make a more thorough examination of central nervous toxicity, the brain was examined after whole body was subjected to perfusion fixation with a 4% formaldehyde in neutral phosphate buffer as a fixing solution using a liquid transporting pump under pentobarbital sodium anesthesia.

[3] = test system: reperfusion-induced arrhythmia upon myocardial ischemia; test: Reperfusion-induced arrhythmia inhibitory action test; type: in vivo, rat; details: male SD rats, 1 mL/kg intravenous
Procedure: Subsequently, in evaluation of the in vivo NHE inhibitory action, the effect of the test compound on reperfusion-induced arrhythmia upon myocardial ischemia was evaluated according to the method of Aihara et al. [European Journal of Pharmacology, Vol. 404, p. 221-229 (2000)]. Under anesthesia using pentobarbital sodium (60 mg/kg, intraperitoneal administration), cannulae were inserted into trachea, femoral vein and carotid artery of male SD rats ([…]) for artificial ventilation, drug administration and blood pressure measurement, respectively. The blood pressure was measured using a strain pressure amplifier via a pressure transducer, while the heart rate was measured from the blood pressure pulse wave using a cardiotachometer. Furthermore, an electrocardiogram (lead II) was measured from the electrodes attached to each four limbs. Next, under artificial ventilation, left thoracotomy was performed and a snare (5-0 nylon) was loosely placed around a blood vessel which was about 3 mm apart from the origin of the left coronary artery. Thereafter, it was confirmed that arrhythmia was not occurred for 10 minutes, and then the snare was fastened to induce local myocardial ischemia. Furthermore, after 4 minutes of myocardial ischemia, the compound was intravenously administered for 1 minute, and after 5 minutes of myocardial ischemia, the snare was loosened, then the arrhythmia occurred after reperfusion was recorded and analyzed with an arrhythmia analyzer (Softron Co., Ltd.), thereby the anti-arrhythmic action of the compound was evaluated. […] The control group was administered with physiological saline.
With regard to the ventricular fibrillation (Vf) which occurred within 10 minutes after reperfusion (in the cases of halfway death, up to the time point where cardiac arrest was confirmed), arrhythmia analysis was performed according to the Guidelines for Lambeth Convention [Cardiovascular research, Vol. 22, p. 447-455, 1988], and evaluation was made in terms of the frequency of Vf occurrence, cumulative duration time of Vf, and the mortality.
The frequency of Vf occurrence, cumulative duration of Vf, and the mortality for the respective test compounds are presented in Table 2.

Beagle dogs = test: Toxicity test after 4-days repeated intravenous administration in beagle dogs; type: in vivo, dog; details: equivalent of 30 mg/kg control compound intravenously once a day for 4 days
Procedure: With one male and one female dogs in each group, 30 mg/kg of the Control Compound dissolved in physiological saline (an amount calculated excluding salts), or an equivalent amount of the Inventive Compound 2, 4, 6 or 8 was repeatedly administered intravenously once a day for 4 days, and general symptom observation and pharmacological histopathologic examination were performed.

[4] = 3.62 mmol/L, within 10 minutes after reperfusion

| Structure (SMILES) | Concentration Intracerebral/Plasma, after 15 min ([1]; 15 min) | Concentration Intracerebral/Plasma, after 30 min ([1]; 30 min) | IC50 (Na^+/H^+ exchanger (NHE)) | Plasma concentration of the control compound, after 5 min [2] | Plasma concentration of the control compound, after 15 min [2] | Plasma concentration of the control compound, after 30 min [2] | Plasma concentration of the control compound, after 60 min [2] | Plasma concentration of the control compound, after 120 min [2] | Histopathological finding in the brain (male mice) | Cumulative duration of Vf [3, 4] | Frequency of Vf occurrence [3, 4] | Mortality [3, 4] | General condition (symptom observation) (Beagle dogs) | Pathologic examination of the brain (Beagle dogs) | Decomposition into the Control Compound in vivo (in words) [2] | Cumulative duration of Vf ([3]; 1.09 mmol/L, 5 animals) | Frequency of Vf occurrence ([3]; 1.09 mmol/L, 5 animals) | Mortality ([3]; 1.09 mmol/L, 5 animals) |
| --- | --- | --- | --- | --- | --- | --- | --- | --- | --- | --- | --- | --- | --- | --- | --- | --- | --- | --- |
| CS(=O)(=O)O.Cc1nc2c(cc1C(=O)NC(=N)N)CCCCC2CO (stereo not shown) [Control Compound, 9-Hydroxymethyl-2-methyl-6,7,8,9-tetrahydro-5H-cyclohepta[b]pyridine-3-carbonylguanidine methanesulfonic acid salt, reference compound] | 1.64 | 2.33 | 33.4 nM | +++ (+++ when the detected plasma concentration of the control compound is 200 ng/mL or greater) | ++ (++ for more than 100 ng/mL and less than 200 ng/mL) | + (+ for more than 20 ng/mL and less than 100 ng/mL) | + (+ for more than 20 ng/mL and less than 100 ng/mL) | − (− for less than 20 ng/mL or no detection) | vacuolation was recognized in the cerebellar nuclei and vestibular nuclei | 30.2 s | 50% | 25% | vomiting, salivation, and decreases in locomotor activity, staggering gait and ananastasia | necrosis/chromatolysis of nerve cells, swelling of axons and vacuolation of myelin sheath | – | – | – | – |
| Cc1nc2c(cc1C(=O)NC(=N)N)CCCCC2CS(=O)(=O)[O-].[Na+] (stereo not shown) [Inventive Compound 4, 3-Guanidinocarbonyl-2-methyl-6,7,8,9-tetrahydro-5H-cyclohepta[b]pyridin-9-ylmethanesulfonic acid sodium salt] | – | – | 211 nM | − (− for less than 20 ng/mL or no detection) | − (− for less than 20 ng/mL or no detection) | − (− for less than 20 ng/mL or no detection) | − (− for less than 20 ng/mL or no detection) | − (− for less than 20 ng/mL or no detection) | any histologic finding which could be caused by drug administration was not recognized | 25.3 s | 60% | 0% | only vomiting was recognized | any histologic finding which could be caused by drug administration was not recognized | not detected at any time point | – | – | – |
| Cc1nc2c(cc1C(=O)NC(=N)N)CCCCC2COC(=O)NCCOS(=O)(=O)[O-].[Na+] (stereo not shown) [Inventive Compound 6, 2-(3-Guanidinocarbonyl-2-methyl-6,7,8,9-tetrahydro-5H-cyclohepta[b]pyridin-9-ylmethyloxycarbonylamino)ethyl sulfate sodium salt] | – | – | 142 nM | − (− for less than 20 ng/mL or no detection) | − (− for less than 20 ng/mL or no detection) | − (− for less than 20 ng/mL or no detection) | − (− for less than 20 ng/mL or no detection) | − (− for less than 20 ng/mL or no detection) | any histologic finding which could be caused by drug administration was not recognized | – | – | – | only vomiting was recognized | any histologic finding which could be caused by drug administration was not recognized | not detected at any time point | 23.3 s | 20% | 0% |
